Results taken from the NIST ThermoML archive (doi:10.1021/je060501l).
Numbers after ± are expanded uncertainties.

Conditions: Liquid

| Structure (SMILES) | vapor or sublimation pressure (273.15 K) [kPa] | vapor or sublimation pressure (283.15 K) [kPa] | vapor or sublimation pressure (293.15 K) [kPa] | vapor or sublimation pressure (303.15 K) [kPa] | vapor or sublimation pressure (313.15 K) [kPa] |
| --- | --- | --- | --- | --- | --- |
| CC(F)F [1,1-difluoroethane] | 265.8 ± 8.6 | 372.8 ± 12 | 513.3 ± 16 | 689.9 ± 22 | 909.4 ± 28 |
| CCC [propane] | 472.5 ± 15 | 633.9 ± 20 | 832.94 ± 26 | 1077 ± 34 | 1370 ± 43 |
